According to patent US20090170914A1, “Cermide Kinase Modulation” (priority 2006, published 2009):

Work on `CCCCCCCCCCCCCC(=O)Nc1ccc2nc(NC(=O)c3ccccc3)sc2c1` yielded a melting point of 160 to 167 °C.
